Results as given in PMC3715890, “A Cyclic Peptide Inhibitor of HIF-1 Heterodimerization That Inhibits Hypoxia Signaling in Cancer Cells” (Journal of the American Chemical Society, 2013).
“Also recorded” adds a separate entry of the source.

How the values were obtained:
[1] = biological target: T1, His-HIF-1α1–350 with GST-HIF-1β1–474 (Homo sapiens, UniProt Q16665); experiment: ELISA of HIF-1 dimerization; type: biochemical; conditions: 10 nM to 500 μM, pH 7.5, 30 min preincubation, room temperature, absorbance 450 nm, read-out: IC50, disruption of HIF-1 dimerization
T1 construct: heterodimerization of His-HIF-1α1–350 with GST-HIF-1β1–474 analyzed by ELISA; made in house; host or cells: E. coli BL21(DE3)
Description: We next probed the effect of cyclo-CLLFVY on the interaction of HIF-1α with HIF-1β in vitro. […] Unfortunately, the positively charged Tat-tag of P1 is incompatible with EMSA (interferes with the bandshift of DNA). […] To determine the HIF-1-specificity of cyclo-CLLFVY, we assessed its ability to disrupt HIF-2 dimerization by ELISA. Recombinant His-HIF-2α1–351 was produced and purified, and shown to form functional heterodimers with GST-HIF-1β1–474 by EMSA (Figure S5B).
HIF-1β1-474, *please note that isoform 3 of HIF-1β was used). The standard protocol for protein expression was followed. Briefly, a 1 % culture in LB was incubated at 37 °C with shaking until OD600 of 0.6 was reached. 0.1 mM IPTG was added and the liquid culture incubated with shaking at 18 °C overnight. Cell pellets were suspended in MHW buffer9 (approximately 4 ml buffer per 1 g cell pellet). Lysozyme (100 µg/ml) was added to the lysate and the solution was incubated with shaking for 20 min at 5 °C. […]
glycerol) was added to individual wells of a Pierce Ni2+-coated 96-well plate (Thermo Scientific, catalogue no. […] The stated quantity of inhibitor (P1 or P2) was added as a solution in 100 µL of buffer to the desired wells, and the plate incubated at room temperature for 30 minutes. […]

[2] = system: MCF-7 cells; experiment: CyQUANT cell proliferation assay, MCF-7; type: cell-based; conditions: 100 μM, 72 h
Experimental: Sulforhodamine B cytotoxicity assay […]
incubated in hypoxia for 24h.
O.D. value of the experimental set.
CyQUANT cell proliferation assay
The cells were incubated for 5 hours and then treated with Tamoxifen or P1. After 24, 48 or 72 hours, the media was […]
C35006) following the manufacturers instructions. Fluorescence measurements were […]
Workman, P.; Ashcroft, M. Cancer Res 2005, 65, 4918.

[3] = system: U2OS cells; conditions: 100 μM, hypoxia 24 h
[4] = system: MCF-7 cells; conditions: MCF-7, 100 μM, hypoxia 24 h
[5] = system: HIF-2α PAS-B; conditions: cited from earlier work
Description: (§1) A homology model of HIF-1α PAS-B mapped onto the NMR s ...

[6] = biological target: T2, PAS-B domain of HIF-1α (Homo sapiens, UniProt Q16665); conditions: cited from earlier work
T2 construct: Per-ARNT-Sim-B (PAS-B, amino acids 235–350) domains; His (N); made in house; host or cells: E. coli BL21(DE3)
Description: as §1

[7] = system: HIF-1; conditions: cited from earlier work
Description: (§2) Inhibition of HIF-1 has long been known to hold much potential for cancer therapy;[14] there are multiple possible points for therapeutic intervention in the hypoxia response network, and molecules that inhibit various components of this diverse pathway have been reported,[15]−[22] but the absolute requirement for the dimerization of HIF-1α and HIF-1β for DNA binding and transcription activity of the HIF-1 complex makes this protein–protein interaction a seemingly optimal point of interception. Several high-throughput screens have been conducted in the effort to identify HIF-1 inhibitors,[15], ...

[8] = system: HIF-2; conditions: cited from earlier work
Description: as §2

| Compound | IC50 [1] [µM] | viability / proliferation of MCF-7 cells [2] | SRB cytotoxicity [3] | SRB cytotoxicity [4] | targeting of PAS-B domain of HIF-2α [5] | targeting of PAS-B domain of HIF-1α [6] | inhibition of HIF-1 [7] | inhibition of HIF-2 [8] |
| --- | --- | --- | --- | --- | --- | --- | --- | --- |
| CC(C)C[C@@H]1NC(=O)[C@H](CSSC[C@H](N)C(=O)NCC(=O)N[C@@H](CCCNC(=N)N)C(=O)N[C@@H](CCCCN)C(=O)N[C@@H](CCCCN)C(=O)N[C@@H](CCCNC(=N)N)C(=O)N[C@@H](CCCNC(=N)N)C(=O)N[C@@H](CCC(N)=O)C(=O)N[C@@H](CCCNC(=N)N)C(=O)N[C@@H](CCCNC(=N)N)C(=O)N[C@@H](CCCNC(=N)N)C(=O)N2CCC[C@H]2C(=O)N2CCC[C@H]2C(=O)N[C@@H](CCC(N)=O)C(=O)O)NC(=O)[C@H](Cc2ccc(O)cc2)NC(=O)[C@H](C(C)C)NC(=O)[C@H](Cc2ccccc2)NC(=O)[C@H](CC(C)C)NC1=O [P1, Tat-cyclo-CLLFVY] | 1.3 | did not affect the viability of MCF-7 cells; also recorded: no effect on MCF-7 proliferation | not cytotoxic | not cytotoxic |  |  |  |  |
| acriflavine |  |  |  |  | targeted | targeted | nonselectively inhibits both HIF-1 and HIF-2 | nonselectively inhibits both HIF-1 and HIF-2 |
